BindingDB's records for doi:10.1016/j.bmcl.2010.06.021 (Shujitsu University, 2010)

Target: Beta-secretase 1 (Homo sapiens, UniProt P56817)
Assay: Inhibition of BACE1 after 60 mins by FRET assay

Chain of Beta-secretase 1 (P56817 whole entry): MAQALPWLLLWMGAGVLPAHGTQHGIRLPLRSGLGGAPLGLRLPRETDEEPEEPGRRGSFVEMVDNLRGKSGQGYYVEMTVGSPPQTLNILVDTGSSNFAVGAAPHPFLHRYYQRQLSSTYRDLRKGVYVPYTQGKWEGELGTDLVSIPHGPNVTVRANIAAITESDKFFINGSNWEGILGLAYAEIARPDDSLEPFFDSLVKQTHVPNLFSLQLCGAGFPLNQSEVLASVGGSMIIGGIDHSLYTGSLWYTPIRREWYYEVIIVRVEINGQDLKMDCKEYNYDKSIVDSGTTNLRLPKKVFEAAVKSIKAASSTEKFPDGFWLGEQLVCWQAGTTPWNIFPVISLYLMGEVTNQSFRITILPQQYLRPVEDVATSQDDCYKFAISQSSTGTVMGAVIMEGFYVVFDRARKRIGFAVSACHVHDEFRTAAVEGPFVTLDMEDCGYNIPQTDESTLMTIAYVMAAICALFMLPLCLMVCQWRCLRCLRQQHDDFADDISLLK

| IC50 | Structure (SMILES) |
| --- | --- |
| > 10 µM | COc1ccc(-c2cc(=O)c3c(O)cc(OC)c(-c4cc(-c5cc(O)c6c(=O)cc(OC)cc-6o5)ccc4OC)c3o2)cc1 [7,4',7'',4'''-O-methyl-amentoflavone] |
| > 10 µM | COc1cc2oc(-c3ccc(OC)c(-c4c(OC)cc(O)c5c(=O)cc(-c6ccc(O)cc6)oc45)c3)cc(O)c-2c(=O)c1 [7-O-methyl-isoginkgetin] |
| > 10 µM | COc1ccc(-c2cc(=O)c3c(O)cc(OC)c(-c4cc(-c5cc(O)c6c(=O)cc(OC)cc-6o5)ccc4O)c3o2)cc1 [heveaflavone] |
| > 10 µM | COc1ccc(-c2cc(=O)c3c(O)cc(OC)c(-c4cc(-c5cc(O)c6c(=O)cc(O)cc-6o5)ccc4OC)c3o2)cc1 [kayaflavone] |
| > 10 µM | COc1ccc(-c2cc(=O)c3c(O)cc(O)c(-c4cc(-c5cc(O)c6c(=O)cc(OC)cc-6o5)ccc4OC)c3o2)cc1 [sciadopitisin] |

Further lines, the compound ahead of its results:

| Structure (SMILES) | IC50 |
| --- | --- |
| O=c1cc(O)cc2oc(-c3ccc(O)c(-c4c(O)cc5oc(-c6ccc(O)cc6)cc(=O)c5c4O)c3)cc(O)c1-2 | > 10 µM |
| O=c1cc(O)cc2oc(-c3ccc(Oc4c(O)cc5oc(-c6ccc(O)cc6)cc(=O)c5c4O)cc3)cc(O)c1-2 | > 10 µM |
| COc1ccc(-c2cc(O)c3c(=O)cc(O)cc-3o2)cc1-c1c(OC)cc(O)c2c(=O)cc(-c3ccc(O)cc3)oc12 [4',7''-di-O-methyl-amentoflavone] | > 10 µM |
| COc1ccc(-c2cc(=O)c3c(O)cc(OC)c(-c4cc(-c5cc(O)c6c(=O)cc(O)cc-6o5)ccc4O)c3o2)cc1 [7'',4'''-dimethylamentoflavone] | > 10 µM |
